Values after ≈ are worked out from the molar mass of the structure shown. Active and inactive are the calls of the source. No cut-off for these calls is given here.
How the values were obtained:
[1] = system: THP-1; assay: Antiinflammatory activity in human PMA-stimulated THP1 cells assessed as inhibition of LPS-induced TNFalpha production at 10 uM treated 30 mins before LPS challenge measured after 24 hrs by ELISA; format: functional
[2] = system: THP-1; assay: Antiinflammatory activity in human PMA-stimulated THP1 cells assessed as inhibition of LPS-induced IL-6 production at 10 uM treated 30 mins before LPS challenge measured after 24 hrs by ELISA; format: functional
[3] = system: Staphylococcus aureus; assay: Antibacterial activity against Staphylococcus aureus up to 200 ug/ml by agar well diffusion method; format: functional, organism-based
[4] = system: Bacillus subtilis; assay: Antibacterial activity against Bacillus subtilis up to 200 ug/ml by agar well diffusion method; format: functional, organism-based
[5] = system: Escherichia coli; assay: Antibacterial activity against Escherichia coli up to 200 ug/ml by agar well diffusion method; format: functional, organism-based
[6] = system: Salmonella typhimurium; assay: Antibacterial activity against Salmonella typhimurium up to 200 ug/ml by agar well diffusion method; format: functional, organism-based; settings: Salmonella enterica subsp. enterica serovar Typhimurium
[7] = system: Candida albicans; assay: Antifungal activity against Candida albicans up to 200 ug/ml by agar well diffusion method; format: functional, organism-based
[8] = system: Aspergillus niger; assay: Antifungal activity against Aspergillus niger up to 200 ug/ml by agar well diffusion method; format: functional, organism-based
[9] = system: Fusarium solani; assay: Antifungal activity against Fusarium solani up to 200 ug/ml by agar well diffusion method; format: functional, organism-based
[10] = system: Aspergillus flavus; assay: Antifungal activity against Aspergillus flavus up to 200 ug/ml by agar well diffusion method; format: functional, organism-based
[11] = system: Staphylococcus aureus; assay: Antibacterial activity against Staphylococcus aureus by agar well diffusion method; format: functional
[12] = system: Escherichia coli; assay: Antibacterial activity against Escherichia coli by agar well diffusion method; format: functional
[13] = system: Salmonella typhimurium; assay: Antibacterial activity against Salmonella typhimurium by agar well diffusion method; format: functional, Salmonella enterica subsp. enterica serovar Typhimurium; settings: Salmonella enterica
[14] = system: Candida albicans; assay: Antifungal activity against Candida albicans by agar well diffusion method; format: functional
[15] = system: Aspergillus niger; assay: Antifungal activity against Aspergillus niger by agar well diffusion method; format: functional
[16] = system: Fusarium solani; assay: Antifungal activity against Fusarium solani by agar well diffusion method; format: functional
[17] = system: Aspergillus flavus; assay: Antifungal activity against Aspergillus flavus by agar well diffusion method; format: functional
[18] = system: Bacillus subtilis; assay: Antibacterial activity against Bacillus subtilis by agar well diffusion method; format: functional

SMILES | inhibition at 10 µM [1] | inhibition at 10 µM [2] | Activity [3] | Activity [4] | Activity [5] | Activity [6] | Activity [7] | Activity [8] | Activity [9] | Activity [10] | MIC [11] | MIC [12] | MIC [13] | MIC [14] | MIC [15] | MIC [16] | MIC [17] | MIC [18]
O=[N+]([O-])c1ccc(-c2cc(Nc3cccc(C(F)(F)F)c3)ncn2)cc1 | 0% | 0% | inactive | inactive | inactive | inactive | inactive | inactive | inactive | inactive | – | – | – | – | – | – | – | –
N#Cc1cccc(NC(=S)Nc2ccc(-c3cc(Nc4cccc(C(F)(F)F)c4)ncn3)cc2)c1 | 11% | 16% | – | inactive | – | – | – | – | – | – | 90 µg/mL (≈ 183 µM) | 90 µg/mL (≈ 183 µM) | 90 µg/mL (≈ 183 µM) | 20 µg/mL (≈ 40.8 µM) | 40 µg/mL (≈ 81.5 µM) | 20 µg/mL (≈ 40.8 µM) | 20 µg/mL (≈ 40.8 µM) | –
O=S(=O)(Nc1ccc(-c2cc(Nc3cccc(C(F)(F)F)c3)ncn2)cc1)c1ccc(Br)cc1 | 6% | 11% | – | inactive | inactive | inactive | – | – | – | – | 80 µg/mL (≈ 146 µM) | – | – | 80 µg/mL (≈ 146 µM) | 95 µg/mL (≈ 173 µM) | – | 95 µg/mL (≈ 173 µM) | –
O=S(=O)(Nc1ccc(-c2cc(Nc3cccc(C(F)(F)F)c3)ncn2)cc1)c1ccc(OC(F)(F)F)cc1 | 0% | 8% | – | – | – | – | inactive | inactive | inactive | inactive | 15 µg/mL (≈ 27.1 µM) | 15 µg/mL (≈ 27.1 µM) | 10 µg/mL (≈ 18 µM) | – | – | – | – | 20 µg/mL (≈ 36.1 µM)
COc1ccc(OC)c(S(=O)(=O)Nc2ccc(-c3cc(Nc4cccc(C(F)(F)F)c4)ncn3)cc2)c1 | 8% | 26% | – | – | – | – | – | – | – | – | 45 µg/mL (≈ 84.8 µM) | 25 µg/mL (≈ 47.1 µM) | 35 µg/mL (≈ 66 µM) | 25 µg/mL (≈ 47.1 µM) | 15 µg/mL (≈ 28.3 µM) | 15 µg/mL (≈ 28.3 µM) | 40 µg/mL (≈ 75.4 µM) | 30 µg/mL (≈ 56.5 µM)
O=[N+]([O-])c1ccc(-c2cc(Cl)ncn2)cc1 | 0% | 0% | inactive | inactive | inactive | inactive | – | – | inactive | – | – | – | – | 90 µg/mL (≈ 382 µM) | 90 µg/mL (≈ 382 µM) | – | 90 µg/mL (≈ 382 µM) | –
Fc1ccccc1NC(=S)Nc1ccc(-c2cc(Nc3cccc(C(F)(F)F)c3)ncn2)cc1 | 50% | 62% | – | – | – | inactive | – | inactive | – | – | 90 µg/mL (≈ 186 µM) | 90 µg/mL (≈ 186 µM) | – | 90 µg/mL (≈ 186 µM) | – | 90 µg/mL (≈ 186 µM) | 90 µg/mL (≈ 186 µM) | 90 µg/mL (≈ 186 µM)
CSc1ccc(NC(=O)Nc2ccc(-c3cc(Nc4cccc(C(F)(F)F)c4)ncn3)cc2)cc1 | 0% | 0% | – | – | – | – | – | inactive | – | – | 75 µg/mL (≈ 151 µM) | 90 µg/mL (≈ 182 µM) | 90 µg/mL (≈ 182 µM) | 90 µg/mL (≈ 182 µM) | – | 90 µg/mL (≈ 182 µM) | 90 µg/mL (≈ 182 µM) | 90 µg/mL (≈ 182 µM)
FC(F)(F)c1cccc(Nc2cc(-c3ccc(NC(=S)Nc4cc(C(F)(F)F)cc(C(F)(F)F)c4)cc3)ncn2)c1 | 0% | 0% | – | – | – | – | – | inactive | – | inactive | 20 µg/mL (≈ 33.3 µM) | 25 µg/mL (≈ 41.6 µM) | 25 µg/mL (≈ 41.6 µM) | 90 µg/mL (≈ 150 µM) | – | 75 µg/mL (≈ 125 µM) | – | 25 µg/mL (≈ 41.6 µM)
O=C(O)c1cn(C2CC2)c2cc(N3CCNCC3)c(F)cc2c1=O [CIPROFLOXACIN] | – | – | – | – | – | – | – | – | – | – | 20 µg/mL (≈ 60.4 µM) | 15 µg/mL (≈ 45.3 µM) | 20 µg/mL (≈ 60.4 µM) | – | – | – | – | 15 µg/mL (≈ 45.3 µM)
Nc1ccc(-c2cc(Nc3cccc(C(F)(F)F)c3)ncn2)cc1 | 0% | 6% | inactive | inactive | inactive | inactive | – | – | – | – | – | – | – | 80 µg/mL (≈ 242 µM) | 80 µg/mL (≈ 242 µM) | 90 µg/mL (≈ 272 µM) | 80 µg/mL (≈ 242 µM) | –
COc1ccc(NC(=S)Nc2ccc(-c3cc(Nc4cccc(C(F)(F)F)c4)ncn3)cc2)cc1 | 3% | 8% | inactive | inactive | inactive | inactive | – | inactive | – | – | – | – | – | 80 µg/mL (≈ 161 µM) | – | 90 µg/mL (≈ 182 µM) | 90 µg/mL (≈ 182 µM) | –
FC(F)(F)c1cccc(Nc2cc(-c3ccc(NC(=S)Nc4ccc(Cl)cc4)cc3)ncn2)c1 | 23% | 28% | – | – | – | – | inactive | inactive | – | inactive | 35 µg/mL (≈ 70 µM) | 30 µg/mL (≈ 60 µM) | 30 µg/mL (≈ 60 µM) | – | – | 90 µg/mL (≈ 180 µM) | – | 35 µg/mL (≈ 70 µM)

Reference: ChEMBL document CHEMBL2021896, “A novel pyrimidine derivatives with aryl urea, thiourea and sulfonamide moieties: synthesis, anti-inflammatory and antimicrobial evaluation” (2012)
